Target: T1, p38MAPKγ (MAPK12) (Homo sapiens, UniProt P53778)
T1 construct: purchased Life Technologies
T1 sequence (P53778 1-367): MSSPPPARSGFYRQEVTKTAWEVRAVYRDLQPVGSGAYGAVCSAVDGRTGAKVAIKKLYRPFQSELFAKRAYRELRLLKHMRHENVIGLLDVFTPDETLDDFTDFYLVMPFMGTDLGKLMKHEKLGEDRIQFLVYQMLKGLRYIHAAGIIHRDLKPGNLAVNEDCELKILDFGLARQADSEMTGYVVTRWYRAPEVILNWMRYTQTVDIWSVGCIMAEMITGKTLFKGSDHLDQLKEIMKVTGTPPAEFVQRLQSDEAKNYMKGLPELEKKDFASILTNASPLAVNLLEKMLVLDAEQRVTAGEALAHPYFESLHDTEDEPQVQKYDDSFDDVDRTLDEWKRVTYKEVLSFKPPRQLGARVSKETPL
Test: p38 MAPKγ enzyme inhibition (Z-LYTE FRET)
Type: biochemical
Conditions: Table 2B, unit inferred; read-out: p38 MAPKγ (Enzyme Profile)
Description: The enzyme inhibitory activities of compounds disclosed herein were determined by FRET using synthetic peptides labelled with both donor and acceptor fluorophores (Z-LYTE, Life Technologies, Paisley, UK).
The inhibitory activities of compounds of the invention against p38MAPKγ (MAPK12: Life Technologies), were evaluated by determining the level of activation/phosphorylation of the target peptide. The enzyme (800 ng/mL, 2.5 μL) was incubated with the test compound (2.5 μL at either 40 μg/mL, 12 μg/mL, 4 μg/mL, 1.2 μg/mL, 0.4 μg/mL, 0.12 μg/mL, 0.04 μg/mL, 0.012 μg/mL, 0.004 μg/mL or 0.0012 μg/mL) for 2 h at RT. The FRET peptides (8 μM, 2.5 μL), and appropriate ATP solution (2.5 μL, 400 μM) were then added to the enzymes/compound mixtures and incubated for 1 h at RT. Development reagent (protease, 5 μL) was added for 1 h prior to detection in a fluorescence microplate reader (EnVision, Perkin Elmer).
In all cases, the site-specific protease cleaves non-phosphorylated peptide only and eliminates the FRET signal. Phosphorylation levels of each reaction were calculated using the ratio of coumarin emission (donor) over fluorescein emission (acceptor), for which low ratios indicate high phosphorylation and high ratios indicate low phosphorylation levels.

| IC50 [nM] | SMILES |
| --- | --- |
| 46 | Cc1ccc(-n2nc(C(C)(C)C)cc2NC(=O)Nc2ccc(OCc3ccnc(Nc4cnc(C(=O)N[C@@H]5CCN(C)C5)cn4)c3)c3ccccc23)cc1 [Example 82] |
| 289 | Cc1ccc(-n2nc(C(C)(C)C)cc2NC(=O)Nc2ccc(OCc3ccnc(Nc4cnc(C(=O)NCC(C)(C)N5CCOCC5)cn4)c3)c3ccccc23)cc1 [Example 281, 5-((4-(((4-(3-(3-(tert-butyl)-1-(p-tolyl)-1H-pyrazol-5-yl)ureido)naphthalen-1-yl)oxy)methyl)pyridin-2-yl)amino)-N-(2-methyl-2-morpholinopropyl)pyrazine-2-carboxamide] |
| 67 | Cc1ccc(-n2nc(C(C)(C)C)cc2NC(=O)Nc2ccc(OCc3ccnc(Nc4cnc(C(=O)NCCN5CCC(O)CC5)cn4)c3)c3ccccc23)cc1 [Example 84] |
| 39 | Cc1ccc(-n2nc(C(C)(C)C)cc2NC(=O)Nc2ccc(OCc3ccnc(Nc4cnc(C(=O)N[C@H]5CCN(C)C5)cn4)c3)c3ccccc23)cc1 [Example 83] |
| 35 | CCN1CCN(C(=O)c2cnc(Nc3cc(COc4ccc(NC(=O)Nc5cc(C(C)(C)C)nn5-c5cccc(COC)c5)c5ccccc45)ccn3)cn2)CC1 [Example 283, 1-(3-(tert-butyl)-1-(3-(methoxymethyl)phenyl)-1H-pyrazol-5-yl)-3-(4-((2-((5-(4-ethylpiperazine-1-carbonyl)pyrazin-2-yl)amino)pyridin-4-yl)methoxy)naphthalen-1-yl)urea] |
| 772 | Cc1ccc(-n2nc(C(C)(C)C)cc2NC(=O)Nc2ccc(OCc3ccnc(Nc4cnc(C(=O)NCCN5CCC(F)(F)CC5)cn4)c3)c3ccccc23)cc1 [Example 94] |
| 34 | Cc1ccc(-n2nc(C(C)(C)C)cc2NC(=O)Nc2ccc(OCc3ccnc(Nc4cnc(C(=O)NCCN5CC[C@@H](O)C5)cn4)c3)c3ccccc23)cc1 [Example 97] |
| 55 | Cc1ccc(-n2nc(C(C)(C)C)cc2NC(=O)Nc2ccc(OCc3ccnc(Nc4cnc(C(=O)NCCN5CCC[C@@H](O)C5)cn4)c3)c3ccccc23)cc1 [Example 95] |
| 16 | Cc1ccc(-n2nc(C(C)(C)C)cc2NC(=O)Nc2ccc(OCc3ccnc(Nc4cnc(C(=O)NCC5CCN(C)CC5)cn4)c3)c3ccccc23)cc1 [Example 81] |
| 269 | Cc1ccc(-n2nc(C(C)(C)C)cc2NC(=O)Nc2ccc(OCc3ccnc(Nc4cnc(C(=O)NCCN5CCC(F)CC5)cn4)c3)c3ccccc23)cc1 [Example 96] |
| 166 | Cc1ccc(-n2nc(C(C)(C)C)cc2NC(=O)Nc2ccc(OCc3ccnc(Nc4cnc(C(=O)NCCN5C[C@@H](C)O[C@@H](C)C5)cn4)c3)c3ccccc23)cc1 [Example 85] |
| 202 | Cc1ccc(-n2nc(C(C)(C)C)cc2NC(=O)Nc2ccc(OCc3ccnc(Nc4cnc(C(=O)NCCN5CC[C@@H](F)C5)cn4)c3)c3ccccc23)cc1 [Example 100] |
| 83 | Cc1ccc(-n2nc(C(C)(C)C)cc2NC(=O)Nc2ccc(OCc3ccnc(Nc4cncc(CN5CCOCC5)n4)c3)c3ccccc23)cc1 [Example 285, 1-(3-(tert-butyl)-1-(p-tolyl)-1H-pyrazol-5-yl)-3-(4-((2-((6-(morpholinomethyl)pyrazin-2-yl)amino)pyridin-4-yl)methoxy)naphthalen-1-yl)urea] |
| 4 | Cc1ccc(-n2nc(C(C)(C)C)cc2NC(=O)Nc2ccc(OCc3ccnc(Nc4cnc(C(=O)N5CCC(N(C)C)CC5)cn4)c3)c3ccccc23)cc1 [Example 272] |
| 176 | COC(=O)N1CCN(CCNC(=O)c2cnc(Nc3cc(COc4ccc(NC(=O)Nc5cc(C(C)(C)C)nn5-c5ccc(C)cc5)c5ccccc45)ccn3)cn2)CC1 [Example 91] |
| > 12800 | Cc1ccc(-n2nc(C(C)(C)C)cc2NC(=O)Nc2ccc(OCc3ccnc(Nc4cnc(C(=O)NC(C)(C)CN5CCOCC5)cn4)c3)c3ccccc23)cc1 [Example 287, 5-((4-(((4-(3-(3-(tert-butyl)-1-(p-tolyl)-1H-pyrazol-5-yl)ureido)naphthalen-1-yl)oxy)methyl)pyridin-2-yl)amino)-N-(2-methyl-1-morpholinopropan-2-yl) pyrazine-2-carboxamide] |
| 42 | Cc1ccc(-n2nc(C(C)(C)C)cc2NC(=O)Nc2ccc(OCc3ccnc(Nc4cnc(C(=O)NC5CN(C)C5)cn4)c3)c3ccccc23)cc1 [Example 89] |
| > 13600 | Cc1ccc(-n2nc(C(C)(C)C)cc2NC(=O)Nc2ccc(OCc3ccnc(Nc4cnc(C(=O)NCc5nccn5C)cn4)c3)c3ccccc23)cc1 [Example 288, 5-((4-(((4-(3-(3-(tert-butyl)-1-(p-tolyl)-1H-pyrazol-5-yl)ureido)naphthalen-1-yl)oxy)methyl)pyridin-2-yl)amino)-N-((1-methyl-1H-imidazol-2-yl)methyl)pyrazine-2-carboxamide] |
| 233 | Cc1ccc(-n2nc(C(C)(C)C)cc2NC(=O)Nc2ccc(OCc3ccnc(Nc4cnc(C(=O)N[C@H]5CCCN(C)C5)cn4)c3)c3ccccc23)cc1 [Example 88] |
| > 15100 | COc1ccc(-n2nc(C(C)(C)C)cc2NC(=O)Nc2ccc(OCc3ccnc(Nc4cnc(C)c(C)n4)c3)c3ccccc23)cc1F [Example 252, 1-(3-(tert-butyl)-1-(3-fluoro-4-methoxyphenyl)-1H-pyrazol-5-yl)-3-(4-((2-((5,6-dimethylpyrazin-2-yl)amino)pyridin-4-yl)methoxy)naphthalen-1-yl)urea] |
| 11 | COCc1cccc(-n2nc(C(C)(C)C)cc2NC(=O)Nc2ccc(OCc3ccnc(Nc4cnc(C(=O)NCC5CCN(C)CC5)cn4)c3)c3ccccc23)c1 [Example 99] |
| 31 | Cc1ccc(-n2nc(C(C)(C)C)cc2NC(=O)Nc2ccc(OCc3ccnc(Nc4cnc(CN5CCN(C)CC5)cn4)c3)c3ccccc23)cc1 [Example 277, 1-(3-(tert-butyl)-1-(p-tolyl)-1H-pyrazol-5-yl)-3-(4-((2-((5-((4-methylpiperazin-1-yl)methyl)pyrazin-2-yl)amino)pyridin-4-yl)methoxy)naphthalen-1-yl)urea] |
| 62 | COCCN1CCC(NC(=O)c2cnc(Nc3cc(COc4ccc(NC(=O)Nc5cc(C(C)(C)C)nn5-c5ccc(C)cc5)c5ccccc45)ccn3)cn2)CC1 [Example 282, 5-((4-(((4-(3-(3-(tert-butyl)-1-(p-tolyl)-1H-pyrazol-5-yl)ureido)naphthalen-1-yl)oxy)methyl)pyridin-2-yl)amino)-N-(1-(2-methoxy-ethyl)piperidin-4-yl) pyrazine-2-carboxamide] |
| 63 | Cc1ccc(-n2nc(C(C)(C)C)cc2NC(=O)Nc2ccc(OCc3ccnc(Nc4cnc(C(=O)NC[C@H](O)CN5CCOCC5)cn4)c3)c3ccccc23)cc1 [Example 87] |
| 374 | Cc1ccc(-n2nc(C(C)(C)C)cc2NC(=O)Nc2ccc(OCc3ccnc(Nc4cnc(C(=O)NCCN5CCC[C@H](F)C5)cn4)c3)c3ccccc23)cc1 [Example 101] |
| 5.8 | Cc1ccc(-n2nc(C(C)(C)C)cc2NC(=O)Nc2ccc(OCc3ccnc(Nc4cncc(C5CCN(C)CC5)n4)c3)c3ccccc23)cc1 [Example 286, 1-(3-(tert-butyl)-1-(p-tolyl)-1H-pyrazol-5-yl)-3-(4-((2-((6-(1-methylpiperidin-4-yl)pyrazin-2-yl)amino)pyridin-4-yl)methoxy)naphthalen-1-yl)urea] |
| > 15500 | CCCc1cncc(Nc2cc(COc3ccc(NC(=O)Nc4cc(C(C)(C)C)nn4-c4cccc(F)c4)c4ccccc34)ccn2)n1 [Example 255, 1-(3-(tert-butyl)-1-(3-fluoro-phenyl)-1H-pyrazol-5-yl)-3-(4-((2-((6-propylpyrazin-2-yl)amino)pyridin-4-yl)methoxy)naphthalen-1-yl) urea] |

From US11142515B2, “Pyrazolyl-ureas as kinase inhibitors” (RESPIVERT LIMITED, priority 2014, dated 2021)
